Assay results published in patent publication US11571485B2, “Peptides and antibodies for detecting changes in alzheimer's disease brain and methods of use thereof” (Sanford Burnham Prebys Medical Discovery Institute, priority 2016, dated 2023).
“Also recorded” adds a separate entry of the source. Where no end group is shown, it is not given here.

Assays:
[1] = system: AD and WT mouse brain sections; experiment: Overlay binding of peptide-coated silver nanoparticles on frozen mouse brain sections
Excerpt: CASPRLSKC recognizes the AD hippocampus in tissue section overlay assay. Silver nanoparticles were coated with the CASPRLSKC peptide or a control peptide and used to overlay brain sections from AD and normal mice. Silver staining was used to visualize binding and nuclei were stained with nuclear fast red. The CASPRLSKC nanoparticles bind to elongated structures that may represent nerve fibers. These structures are not present in the normal brain.
Binding of DAG conjugated silver nanoparticles on frozen brain sections from AD or WT animals in overlay binding assay was also tested. […] This binding is restricted to the hippocampal region CA1 and the dentate gyms. Frozen coronal sections from AD and WT mice were used for overlay experiments with DAG-AgNPs. Silver staining was used to visualize binding and nuclei were stained with nuclear fast red.
Silver nanoparticles (AgNPs) with PEG coating and peptide functionality were prepared as reported previously with some modifications (Braun et al., Nature materials 13, 904-911 (2014)). AgNPs of ˜35 nm diameter were synthesized by citrate acid reduction of silver nitrate in solution. First, AgNO3 (450 mg) dissolved in 2.5 L water was stirred and heated to a boil and 50 mL water containing trisodium citrate dihydrate (500 mg, Sigma) was added. After 30 min the solution was cooled to room temperature. The resulting optical density at 405 nm was ˜10. […]

[2] = system: human astrocytoma U251 cells; experiment: AgNP binding to U251 cells; assay type: cell-based
Procedure: FIG. 7 is a graphical representation showing quantity of DAG-coated silver nanoparticles (DAG-AgNPs) binding to human astrocytoma U251 cells. Cultured U251 cells were incubated with DAG-AgNPs alone, in the presence of free non-labeled control peptide, or an excess of free, non-labeled DAG (both at 200 μM), for 1 hour at 37° C. Nanoparticle binding was quantified from fluorescence micrographs using ImageJ™ software. Scale bar, 20 μm.
(§1) Cell binding experiments on U251 cells and hiPSCs were with done using peptide conjugated AgNP. U251 cells were cultured in a 96-well plate. The cells were blocked with 200 μl of 10% FCS in HBSS (Hanks' Balanced Salt Solution from Gibco) for 30 min at 37° C. Following that, DAG-AgNPs (0.5 nM concentration diluted in HBSS) alone or in the presence of free non-labeled peptide (200 μM) were incubated on the cells for 1 hour at 37° C. After washing the unbound AgNP with HBSS three times, the plates were imaged with fluorescent microscopy by looking at intrinsic emission from the FAM tag on the peptide. hiPSCs were cultured in 48 well plate and similar protocol as described above was followed, with the exception that AgNP concentration for incubation was kept at 0.15 nM. Nanoparticle binding was quantified from fluorescence micrographs using ImageJ™ software.

[3] = system: human iPS cell-derived endothelial cells (ECs) from an AD patient; experiment: AgNP binding to hiPSC-derived brain endothelial cells; assay type: cell-based; details: for Binding to AD patient iPS cell-derived endothelial cells: AD patient vs normal donor cells
Excerpt: Human iPS cell-derived from an AD patient and from a normal individual were differentiated into endothelial cells and the cultured cells were used in an overlay assay with DAG-coated and control AgNP.
The details of human induced pluripotent stem cells (hiPSCs) derived from Alzheimer disease patients with APP duplication, and non-demented control individuals, are described previously (Israel et al., Nature 482, 216-220 (2012)). These hiPSCs were extensively characterized and have been established as an excellent human model for AD. An additional AD hiPSC line generated from dermal fibroblasts from an individual harboring a Presenilinl (PSEN1) mutation (Coriell Institute, Cat #AG06840) was used to further validate the results from the APP lines. hiPSCs were routinely maintained on mouse embryonic fibroblast as described before (Lin et al., Nat Methods 6, 805-808 (2009); Talantova et al., Proc Natl Acad Sci USA 110, E2518-2527 (2013)). Brain microvascular endothelial cells differentiation of hiPSCs was performed using a previously described protocol (Lippmann et al., Nature biotechnology 30, 783-791 (2012), with minor modifications. Briefly, feeder-free cultures of hiPSCs were allowed to spontaneously differentiate in the absence of bFGF for 5-7 days, and then transferred to Endothelial cell (EC) medium composed of human Endothelial Serum-Free Medium™ (Invitrogen) supplemented with 20 ng/ml bFGF and 1% platelet-poor plasma-derived bovine serum (PDS; Biomedical Technologies). After 1-2 days the cells were dissociated with dispase (2 mg/ml) and were plated on 12 well plates coated with a mixture of collagen IV (400 μg/ml) and fibronectin (100 μg/ml). Cells were then cultured in EC medium until they reached confluence, after which they were split and expanded to near 100% purity. BBB-type EC identity was confirmed by flow cytometry or double immunoreactivity to the hallmark efflux transporter p-glycoprotein and other EC markers (CD31, GLUT-1, PECAM, Occludin, and Claudin-5). Furthermore, the capability of these cells to make functional tight junctions and polarized efflux activity was validated using a dual chamber efflux transport assay as described before.
as §1

human AD brain sections = experiment: Ex vivo overlay binding to human AD brain sections; details: overlay
Procedure: PFA fixed sections were incubated in PBS for 10 minutes, followed by PBS-Triton-x-100 (0.2%) for 10 minutes. Sections were rinsed with PBST, mounted in a slide holder, and subsequently washed with PBS-T during 12 minutes. Slides were blocked with blocking buffer for 60 minutes at room temperature. Then, peptides were incubated at a concentration of 10 μg/mL dissolved in concentrated blocking buffer, for three hours at room temperature. Sections were then washed with three 4-minute washes of PBS-T, and subsequently fixed with PFA for 10 minutes, followed by three 3-minute washes with PBS-T. Sections were then incubated with primary antibody at 1/200 in diluted blocking buffer overnight at 4° C. Later, sections were washed with three 4-minute washes with PBS-T. Slides were then incubated with secondary antibody at 1/200 dilution in diluted blocking buffer for 30 minutes at room temperature, followed by three 4-minute washes of PBS-T. Sections were then counterstained with DAPI for 5 minutes, washed with PBS-T and mounted.
Postmortem human brain samples were obtained from the New York Brain Bank at Columbia University, New York. The patient was a person with a diagnosis of AD neuropathologic changes ([A3, B3, C3]). The normal brain tissue was obtained from BioChain Institute Inc. (Newark, Calif.). The donor was a person without any neurologic diagnosis on detailed neuropathologic evaluation. The Parkinson's disease brain tissue was obtained from UCSD Pathology bank. Frozen brain tissue was sectioned for immunohistochemistry and ex vivo overlay binding with FAM-peptides.

Binding to AD brain sections compared to age-matched wild-type brain sections ([1]; frozen brain sections, overlay binding assay): over 10 fold | Binding to hippocampal CA1 region in AD brains versus WT brains ([1]; frozen coronal sections, hippocampal CA1 region): 14 fold
Substance: DAG-AgNPs: DAG-coated silver nanoparticles with PEG coating, FAM-cys-x-DAG-NH2 attached (CDAGRKQKC-NH2; not fully specified (N-terminus); also: attached via extra Cys thiol to maleimide-PEG on silver nanoparticles)
Binding to U251 cells ([2]; 1 hour at 37° C.): bound robustly to these cells, much more so than non-targeted nanoparticles | Inhibition of binding to U251 cells by free DAG ([2]; excess free non-labeled DAG, 200 μM): inhibited by co-incubation with an excess of free, non-labeled DAG | Inhibition of AgNP binding by free DAG peptide ([3]; 200 μM free non-labeled DAG): inhibited by the presence of free DAG peptide | Binding to AD patient iPS cell-derived endothelial cells [3]: bind to human iPS cell-derived endothelial cells (ECs) from an AD patient, but not to ECs derived from a normal donor; also recorded: binding to human IPS cell-derived endothelial cells (ECs) from an AD patient, but not to ECs derived from a normal donor | Binding to AD patient iPS cell-derived endothelial cells ([3]; listed as DAG-AgNP): high binding | Binding to human AD brain sections (human AD brain sections): bind to sections from an AD patient with sporadic AD
